Results from PubChem BioAssay (NCI).
Where “and” joins values, the source holds several entries; their conditions need not be identical. Equal values may be shown once.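 96-well plates; 48 h exposure; 5 concentrations. Endpoints by linear interpolation between flanking doses. Not reached: highest tested concentration assigned. GI50 = concentration required for 50% inhibition of growth. TGI marks complete inhibition of growth.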

Legend:
Assay in all cases: NCI-60 cell line screen, 48 h
SNB-19 CNS = test system: SNB-19 CNS
SNB-75 CNS = test system: SNB-75 CNS
SF-268 CNS = test system: SF-268 CNS
K-562 leukemia = test system: K-562 leukemia
EKVX NSCLC = test system: EKVX NSCLC
XF 498 CNS = test system: XF 498 CNS
SF-295 CNS = test system: SF-295 CNS
HOP-18 NSCLC = test system: HOP-18 NSCLC
SK-MEL-2 melanoma = test system: SK-MEL-2 melanoma
DMS 114 small cell lung = test system: DMS 114 small cell lung

| SMILES | TGI (SNB-19 CNS) [µM] | TGI (SNB-75 CNS) | TGI (SF-268 CNS) [µM] | TGI (K-562 leukemia) | TGI (EKVX NSCLC) | TGI (XF 498 CNS) [µM] | TGI (SF-295 CNS) [µM] | TGI (HOP-18 NSCLC) | TGI (SK-MEL-2 melanoma) | TGI (DMS 114 small cell lung) | GI50 (DMS 114 small cell lung) [µM] | GI50 (SNB-19 CNS) [µM] | GI50 (SF-268 CNS) [µM] | GI50 (K-562 leukemia) [µM] | GI50 (EKVX NSCLC) [µM] | GI50 (XF 498 CNS) [µM] | GI50 (HOP-18 NSCLC) [µM] | GI50 (SK-MEL-2 melanoma) [µM] | GI50 (SNB-75 CNS) [µM] | GI50 (SF-295 CNS) [µM] |
| --- | --- | --- | --- | --- | --- | --- | --- | --- | --- | --- | --- | --- | --- | --- | --- | --- | --- | --- | --- | --- |
| COc1cccc2c1C(=O)c1c(O)c3c(c(O)c1C2=O)C[C@](O)(C(=O)CO)CC3OC1CC(N)C(OC2CCCCO2)C(C)O1 (stereo partly specified) | 4.16 | 1.18 µM | 3.04 | 6.5 µM | 3.43 µM | 0.684 | 0.672 | 3 µM | 2.43 µM |  |  |  |  |  |  |  |  |  |  |  |
| O=c1c2cc(Cl)ccc2n2nnc3ccc(NCCNCCO)c1c32 | 5.07 | 0.286 µM | 8.86 | 10.9 µM | 4.44 µM |  | 1.38 |  | 5.01 µM | 3.59 µM |  |  |  |  |  |  |  |  |  |  |
| CCC[CH2][Ge]([CH2]CCC)([CH2]CCC)[O]C(=O)CCl | 22.9 |  | 23.1 | 31.6 µM | 16.2 µM | 21.1 |  | 24 µM | 19.7 µM | 10.2 µM | 0.316 | 10.8 | 10.2 | 0.879 | 1.18 | 8.63 | 11.7 | 3.59 |  |  |
| C=C1C(=O)OC2C1CC1OC2C(C)CCC/C(C)=C\CCC1(C)O (stereo unspecified) | 103 | 51.5 µM | 51.8 | 48.5 µM | 79.4 µM | 38.9 | 85.2 | 19.7 µM | 32.7 µM | 33 µM |  |  |  |  |  |  |  |  |  |  |
| CC1Oc2c(c(O)cc3oc(=O)cc(-c4ccccc4)c23)C(=O)C1C (stereo unspecified) |  | > 100 µM | > 100 | > 100 µM | > 100 µM | > 100 | > 100 | > 100 µM | > 100 µM |  |  |  |  |  |  |  |  |  |  |  |
| COc1ccc(/C=C(\C#N)c2nc(-c3cc4ccccc4oc3=O)cs2)cc1 | 34.9 | 59.5 µM | 83.4 | > 100 µM | > 100 µM |  | 55.9 |  | > 100 µM |  |  |  |  |  |  |  |  |  |  |  |
| COc1ccc(CNc2cnc3cc(N)ccc3n2)cc1OC | > 100 | > 100 µM | > 100 | > 100 µM | > 100 µM |  | > 100 |  | > 100 µM | > 100 µM |  |  |  |  |  |  |  |  |  |  |
| C=CC(=O)N1C/C(=C\c2ccc(F)cc2)C(=O)/C(=C/c2ccc(F)cc2)C1 | 3.72 | 1.94 µM | 0.622 | > 100 µM | 3.88 µM |  | 1.2 |  | 2.69 µM |  |  |  |  |  |  |  |  |  |  |  |
| O.O=[Se](=O)(O)O.[NH-]C1CCCCC1[NH-].[Pt+2] (stereo unspecified) | > 100 | > 83 µM | > 100 | > 100 µM | > 100 µM |  | > 92.1 | > 100 µM | > 100 µM |  |  | > 50.7 | 8.09 | 5.35 | 36.1 |  | > 100 | 22.9 | 16.9 | 15.4 |
| NC(Cc1ccccc1)C(=O)O (stereo unspecified) | > 100 | > 100 µM | > 100 | > 100 µM | > 100 µM |  | > 100 |  | > 100 µM |  |  |  |  |  |  |  |  |  |  |  |
| O=C1C(=O)C(CCCO)(CCCO)CCCCCCCCC1(CCCO)CCCO | > 100 | > 100 µM | > 100 | 69.6 µM | > 100 µM |  | > 100 |  | > 100 µM |  |  |  |  |  |  |  |  |  |  |  |
| COc1cc2c(cc1OCc1ccccc1)NC(=O)[C@@H]1C[C@@H](O)CN1C2=O | > 100 | > 100 µM | > 100 | > 100 µM | > 100 µM |  | > 100 |  | > 100 µM |  |  |  |  |  |  |  |  |  |  |  |
| CCSc1nn(-c2c3ccccc3nc3ccccc23)c(=S)s1 | > 100 | > 100 µM | > 100 | > 100 µM | > 100 µM |  | > 100 |  | > 100 µM |  |  |  |  |  |  |  |  |  |  |  |
| Clc1cccc(Cl)c1C1ON=C(c2ccccc2)N1C12CC3CC(CC(C3)C1)C2 (stereo unspecified) | > 100 | 18.3 µM | > 100 | 44.7 µM | > 100 µM |  | > 100 |  | 71 µM |  |  |  |  |  |  |  |  |  |  |  |
| COc1ccc(/C(Cl)=C(\C=O)c2ccc(Cl)cc2)cc1 | 87.4 | 26.2 µM | 58.7 | > 100 µM | > 100 µM |  | 19.1 | > 100 µM | 54.6 µM | 32.5 µM |  |  |  |  |  |  |  |  |  |  |
| O=C(c1ccccc1)c1ccc2c(c1)N=C(c1ccc(Cl)c(Cl)c1)CC(c1ccc3ccccc3c1)N2 (stereo unspecified) | > 100 | > 100 µM | > 100 | > 100 µM | > 100 µM | > 100 | > 100 |  | > 100 µM | > 100 µM |  |  |  |  |  |  |  |  |  |  |
| C#Cc1ccccc1C(=O)OC | > 100 | > 100 µM |  | > 100 µM | > 100 µM | > 100 | > 100 | > 100 µM | > 100 µM | > 100 µM |  |  |  |  |  |  |  |  |  |  |
| Nc1ncnc2c(C3OC(CO)C(O)C3O)c[nH]c12 (stereo unspecified) | 8.69 | 0.0984 µM and 0.459 µM | 0.559 | 0.116 µM and 0.0193 µM | 0.415 µM and 0.274 µM | 0.168 | 1.02 | 0.497 µM and 1.34 µM | 0.0101 µM and < 0.0304 µM | 0.0304 µM and 0.0184 µM |  |  |  |  | < 0.0171 |  |  | 0.00179 |  |  |
| Cc1ccc2c3ccc4c(c3n(C)c2c1)C(=O)C=CC4=O | > 10 | > 10 µM | > 10 | 3.75 µM | > 10 µM |  | > 10 |  | > 10 µM |  |  |  |  |  |  |  |  |  |  |  |
| COC(=O)[C@]12CCC(=O)N1[C@H](C(=O)O)Cc1c2[nH]c2ccccc12 | > 100 | > 100 µM | > 100 | > 100 µM | > 100 µM |  | > 100 |  | > 100 µM |  |  |  |  |  |  |  |  |  |  |  |
| O=[N+]([O-])c1ccc(-c2nc3ccccc3o2)cc1 | > 100 | > 100 µM | > 100 | > 100 µM | > 100 µM |  | > 100 |  | > 100 µM |  |  |  |  |  |  |  |  |  |  |  |
| Cc1nc2ccccc2n1CCc1nc2ccccc2[nH]1 | > 100 | > 100 µM | > 100 | > 100 µM | > 100 µM |  | > 100 |  | > 100 µM |  |  |  |  |  |  |  |  |  |  |  |
